Laboratory results: article PMC4241293, “Sulfa Drugs as Inhibitors of Carbonic Anhydrase: New Targets for the Old Drugs” (BioMed Research International, 2014)

Tests used:
[1] = target: bovine cytosolic carbonic anhydrase II (bCA II) (Bos taurus, UniProt P00921); assay: In vitro carbonic anhydrase inhibition assay (p-nitrophenyl acetate hydrolysis); format: biochemical; details: for IC50: mean of three independent experiments ± SEM; for inhibition at 500 µM: at 0.5 mM concentration of tested compounds, mean ± SEM
Sequence of bovine cytosolic carbonic anhydrase II (bCA II) (P00921 whole entry): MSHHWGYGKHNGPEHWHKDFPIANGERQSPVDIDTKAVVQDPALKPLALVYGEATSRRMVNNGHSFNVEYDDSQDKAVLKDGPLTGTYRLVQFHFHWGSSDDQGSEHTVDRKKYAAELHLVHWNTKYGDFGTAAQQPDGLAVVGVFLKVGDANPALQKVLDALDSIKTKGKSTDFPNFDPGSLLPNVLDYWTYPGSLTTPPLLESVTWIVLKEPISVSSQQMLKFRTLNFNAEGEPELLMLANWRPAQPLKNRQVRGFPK
Method: Carbonic anhydrase inhibition was measured by the reported method after standardization of reaction conditions such as concentration of enzyme and substrate, buffer pH, and duration of reaction. The method is based on spectrophotometric determination p-nitrophenol, the CA catalyzed hydrolysis product of p-nitrophenyl acetate. The reaction mixture consisted of 60 μL of 50 mM Tris-sulfate buffer (pH 7.6, containing 0.1 mM ZnCl2), 10 μL (0.5 mM) test compound in 1% DMSO, and 10 μL (50 U) bovine enzyme per well. […] Substrate, p-nitrophenyl acetate (6 mM stock using <5% acetonitrile in buffer), 20 μL was freshly prepared and added per well to achieve […] concentration per well. Total reaction volume was made to 100 μL.
The CA active site residues involved in direct zinc binding are His94, His96, and His119. In addition the substrate (CO2) association pocket, Thr199 loop, and the histidine proton shuttle mechanism (for regeneration of active site Zn bound hydroxide ion) are essential for CA catalytic activity and are highly conserved in all alpha class CAs. For this reason initial screening against bCA-II was carried out.

Row | SMILES | melting point [°C] | IC50 [1] [µM] | inhibition at 500 µM [1] [%]
1 | Cc1ccnc(NS(=O)(=O)c2ccc(Nc3nc(Cl)nc(Cl)n3)cc2)n1 [1a, 4-[(4,6-Dichloro-1,3,5-triazin-2-yl)amino]-N-(4-methylpyrimidin-2-yl)benzenesulfonamide] | 235 to 237 | 4.14 ± 0.02 | 
2 | O=S(=O)(Nc1cnc2ccccc2n1)c1ccc(Nc2nc(Cl)nc(Cl)n2)cc1 [2a, 4-[(4,6-Dichloro-1,3,5-triazin-2-yl)amino]-N-(quinoxalin-2-yl)benzenesulfonamide] | 268 to 270 | 105.3 ± 0.16 | 
3 | Nc1ccc(S(=O)(=O)Nc2cnc3ccccc3n2)cc1 [2b, sulfaquinoxaline, reference compound] |  |  | 51.8
4 | O=S(=O)(Nc1ncccn1)c1ccc(Nc2nc(Cl)nc(Cl)n2)cc1 [3a, 4-[(4,6-Dichloro-1,3,5-triazin-2-yl)amino]-N-(pyrimidin-2-yl)benzenesulfonamide] | 221 to 223 | 24.9 ± 0.03 | 
5 | Cc1cc(C)nc(NS(=O)(=O)c2ccc(Nc3nc(Cl)nc(Cl)n3)cc2)n1 [4a, 4-[(4,6-Dichloro-1,3,5-triazin-2-yl)amino]-N-(4,6-dimethylpyrimidin-2-yl)benzenesulfonamide] | 327 to 329 | 14.9 ± 0.02 | 
6 | Cc1cc(C)nc(NS(=O)(=O)c2ccc(N)cc2)n1 [4b, sulfadimidine, reference compound] |  |  | 41.7
7 | O=S(=O)(Nc1cncc(Cl)n1)c1ccc(Nc2nc(Cl)nc(Cl)n2)cc1 [5a, N-(6-Chloropyrazin-2-yl)-4-[(4,6-dichloro-1,3,5-triazin-2-yl)amino]benzenesulfonamide] | 236 to 238 | 1.49 ± 0.006 | 
8 | Nc1ccc(S(=O)(=O)Nc2cncc(Cl)n2)cc1 [5b, sulfachloropyrazine, reference compound] |  |  | 42.4
